Results as given in patent US12643889B2, “Synthesis of novel EP4 antagonist and use in cancer and inflammation” (Wuhan Humanwell Innovative Drug Research And Development …, priority 2020, dated 2026).

Columns and labels:
[1] = target: T1, recombinant human EP4 receptor membrane protein (Homo sapiens, UniProt P35408); experiment: Radioligand binding assay for EP4 receptor ([3H]-PGE2); conditions: [3H]-PGE2 1.5 nM; membrane protein 20 μg/well
T1 construct: expressed in transfected cells; host or cells: membranes of 293 cells overexpressing human EP4 receptor

[2] = Mouse pharmacokinetic assay; type: in vivo, male ICR mice; conditions: male, ICR, plasma
[3] = Rat pharmacokinetic assay; type: in vivo, male SD rats
Experimental: (§1) In a mouse pharmacokinetic assay, male ICR mice (20 g to 25 g) were selected and fasted overnight. Three mice were selected and intragastrically administered with 5 mg/kg of the corresponding compound. The blood of the mice was collected before the administration and at 15 min, 30 min, 1 h, 2 h, 4 h, 8 h, 24 h after the administration. Another 3 mice were intravenously administered with 1 mg/kg of the corresponding compound, and the blood thereof was collected before the administration and at 15 min, 30 min, 1 h, 2 h, 4 h, 8 h, 24 h after the administration. The blood samples were centrifuged at 6800 g at 2° C. to 8° C. for 6 minutes, and plasma was collected and stored at −80° C. The plasma was taken at respective time point, mixed with 3-5 times the amount of acetonitrile containing internal standard, vortexed for 1 minute, centrifuged at 4° C. for 10 minutes at 13000 rpm, supernatant was added 3 times the amount of water, and the appropriate mixture was taken for LC-MS/MS analysis. The primary pharmacokinetic parameters were analyzed with a WinNonlin 7.0 software, with non-compartmental model.
In a rat pharmacokinetic assay, male SD rats (180 g to 240 g) were selected and fasted overnight. Three rats were intragastrically administered with 5 mg/kg of the corresponding compound. Another 3 rats were intravenously administered with 1 mg/kg of the corresponding compound. The following operations were the same as the mouse pharmacokinetic assay.

[4] = Canine pharmacokinetic assay; type: in vivo, male Beagle dogs
Experimental: as §1
In a canine pharmacokinetic assay, male Beagle dogs (8 kg to 10 Kg) were selected and fasted overnight. Three Beagle dogs were taken and intragastrically administered with 3 mg/kg of the corresponding compound. Another 3 Beagle dogs were intravenously administered with 1 mg/kg of the corresponding compound. The following operations were the same as the mouse pharmacokinetic assay.

human EP4 receptor [5] = target: T2, human EP4 receptor (Homo sapiens, UniProt P35408); experiment: Assay of calcium current inhibition on EP4 receptor (FLIPR, 293 cells); type: cell-based; set-up: expressed in transfected cells; host or cells: 293 cells; conditions: 293 cells overexpressing human EP4; PGE2 at EC80; FLIPR
human EP4 receptor [6] = target: T2, human EP4 receptor; experiment: Assay for EP4 antagonistic effect (cAMP, PGE2-stimulated CHO stable cell line)
[7] = intravenous administration 1 mg/kg
[8] = oral gavage administration 5 mg/kg
[9] = male, SD, plasma, rat, intravenous administration 1 mg/kg
[10] = male, SD, plasma, rat, oral gavage administration 5 mg/kg
[11] = male, Beagle, dog, plasma, canine, intravenous administration 1 mg/kg
[12] = male, Beagle, dog, plasma, canine, oral gavage administration 3 mg/kg

T2 sequence (P35408 whole entry): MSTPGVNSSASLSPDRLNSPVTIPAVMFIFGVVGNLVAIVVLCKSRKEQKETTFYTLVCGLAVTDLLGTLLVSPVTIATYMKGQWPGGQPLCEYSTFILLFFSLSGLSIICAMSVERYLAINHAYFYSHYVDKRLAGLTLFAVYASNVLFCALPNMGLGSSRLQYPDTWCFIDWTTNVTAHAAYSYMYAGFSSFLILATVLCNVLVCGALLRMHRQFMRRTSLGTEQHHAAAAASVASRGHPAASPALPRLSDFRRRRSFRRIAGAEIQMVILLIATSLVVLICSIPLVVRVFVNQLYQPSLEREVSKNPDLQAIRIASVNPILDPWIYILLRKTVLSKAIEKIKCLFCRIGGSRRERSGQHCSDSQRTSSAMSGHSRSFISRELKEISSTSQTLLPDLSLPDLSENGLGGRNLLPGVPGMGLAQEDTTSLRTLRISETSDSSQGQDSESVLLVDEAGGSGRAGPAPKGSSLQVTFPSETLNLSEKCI
T1 sequence (P35408 whole entry): as above

## C[C@H](NC(=O)c1c(C(F)F)nn(C)c1Oc1cccc(C(C)(F)F)c1)c1ccc(C(=O)O)cc1 [Compound I-5, (S)-4-(1-(5-(3-(1,1-difluoroethyl)phenoxy)-3-(difluoromethyl)-1-methyl-1H-pyrazole-4-carboxamido)ethyl)benzoic Acid]
[1]
  IC50: 5.3 nM
  Ki: 2.9 nM
[2]; [7]
  AUC(0-t): 1260 ng·h/mL
  clearance: 12.7 mL/min/kg
  half-life: 5.11 h
[2]; intravenous administration 1 mg/kg, read-out: Vz
  Vd: 5.62 L/kg
[2]; [8]
  AUC(0-t): 2710 ng·h/mL
  Cmax: 1450 ng/mL
  Tmax: 0.33 h
  half-life: 7 h
[3]; [9]
  AUC(0-t): 1670 ng·h/mL
  clearance: 9.5 mL/min/kg
  half-life: 9.3 h
[3]; male, SD, plasma, rat, intravenous administration 1 mg/kg, read-out: Vz
  Vd: 7.66 L/kg
[3]; [10]
  AUC(0-t): 10800 ng·h/mL
  Cmax: 993 ng/mL
  Tmax: 2 h
  half-life: 9.87 h
[3]; rats, oral administration
  exposure after oral administration relative to the control compound: about 2 times
[4]; canines, oral administration
  exposure after oral administration relative to the control compound: about 2 times
[4]; [11]
  AUC(0-t): 4370 ng·h/mL
  clearance: 3.5 mL/min/kg
  half-life: 9.73 h
[4]; male, Beagle, dog, plasma, canine, intravenous administration 1 mg/kg, read-out: Vz
  Vd: 2.84 L/kg
[4]; [12]
  AUC(0-t): 10300 ng·h/mL
  Cmax: 4820 ng/mL
  Tmax: 0.25 h
  half-life: 19.9 h
Human EP4 receptor [5]
  IC50: 12 nM
Human EP4 receptor [6]
  IC50: 2.2 nM
